Experimental data taken from patent US5652335A, “Physiologically active substance well capable of permeating biomembrane” (Teikoku Seiyaku Kabushiki Kaisha, priority 1990, dated 1997).

Columns and labels:
[1] = system: extirpated intestine of guinea pig; assay: suppressing effect on shrinkage of extirpated intestine of guinea pig by electric stimulations (method of Kosterlitz); type: cell-based; conditions: for ED50 (mol) (mean ± s.e.m.): suppression of electrically stimulated shrinkage of extirpated guinea pig intestine, in vitro
Procedure: Adamantylated enkephalin derivatives a and b obtained in Examples 1 and 2 were examined for in vivo analgesic effect and in vitro suppressing effect to shrinkage of extirpated intestine of guinea pig by electric stimulations.
A suppressing effect for the shrinkage of extirpated intestine of guinea pig of the adamantylated enkephalin derivatives a and b was measured in accordance with the method of Kosterlitz (H. W. Kosterlitz, A. A. Watterfield, Ann. Rev. Pharmacol., 15, 29, (1975)).

mouse (dd-Y series) = assay: in vivo analgesic activity by Randall Selitto method; conditions: subcutaneous administration to mouse, 1-50 mg/kg, in DMA: physiological saline (4:6); FIG. 2-5
Procedure: Adamantylated enkephalin derivatives a and b are subcutaneously administrated to a mouse, and an analgesic effect in the central nervous system was measured by Randall Selitto method. That is, the derivatives a and b were dissolved in a mixed solution of DMA: physiological saline solution (4:6) and about 100 μl of the solution was subcutaneously administrated to a mouse (dd-Y series: about 20 g) (1-50 mg/kg), and the analgesic effect was measured on every predetermined time interval after the administration by the Randall Selitto method.

Row | Molecule | Relative Potency [1] | ED50 (mol) (mean ± s.e.m.) [1] | analgesic activity (mouse (dd-Y series)) | suppression for shrinkage, antagonism by naloxon ([1]; extirpated guinea pig intestine)
1 | CC(C)C[C@H](NC(=O)[C@H](Cc1ccccc1)NC(=O)CNC(=O)[C@@H](C)NC(=O)[C@@H](N)Cc1ccc(O)cc1)C(=O)O [[D-Ala^2] Leucine enkephalin, H-Tyr-D.Ala-Gly-Phe-Leu-OH, reference compound] | 0.89 | 3.6 ± 1.17 × 10^-8 mol |  | 
2 | H-Tyr-D.Ala-Gly-Phe-Leu-NH-Ada [Derivative b] | 2.13 | 1.5 ± 0.71 × 10^-8 mol | inferior to morphine hydrogen chloride but superior to the controls | showed suppression for shrinkage each of which was antagonized by naloxon
